Where “and” joins values, the source holds several entries; their conditions need not be identical. Identical values can stand only once.
What was measured:
[1] = test system: db/db mice; test: Evaluation of lipid levels (dyslipidemia) in db/db mice; assay type: in vivo; conditions: oral bid 15 days
Method: The assay was designed as in the reference, Metabolism, 49 (1), 22-31, 2000, the disclosure of which is incorporated by reference for the teaching of the assay. Seven groups of male db/db mice (8 animals per group) were used. […] Body weight was measured daily. On day 15, the animals were deprived of food for 4 hours after the last dose administration. Blood was collected at the end of the 4-hour period using heparinised capillaries by a retro-orbital puncture. Plasma samples were analyzed for glucose, triglyceride, cholesterol, using the autoanalyser.

[2] = target: T1, Human PPARγ (Homo sapiens, UniProt P37231); test: Human PPARγ transactivation assay (luciferase reporter, HEK293 cells); assay type: cell-based; conditions: 48 hours
T1 construct: Human full length PPARγ cDNA was cloned into pSG5 expression vector; expressed in transfected cells; host or cells: HEK293 cells
T1 sequence (P37231 1-505): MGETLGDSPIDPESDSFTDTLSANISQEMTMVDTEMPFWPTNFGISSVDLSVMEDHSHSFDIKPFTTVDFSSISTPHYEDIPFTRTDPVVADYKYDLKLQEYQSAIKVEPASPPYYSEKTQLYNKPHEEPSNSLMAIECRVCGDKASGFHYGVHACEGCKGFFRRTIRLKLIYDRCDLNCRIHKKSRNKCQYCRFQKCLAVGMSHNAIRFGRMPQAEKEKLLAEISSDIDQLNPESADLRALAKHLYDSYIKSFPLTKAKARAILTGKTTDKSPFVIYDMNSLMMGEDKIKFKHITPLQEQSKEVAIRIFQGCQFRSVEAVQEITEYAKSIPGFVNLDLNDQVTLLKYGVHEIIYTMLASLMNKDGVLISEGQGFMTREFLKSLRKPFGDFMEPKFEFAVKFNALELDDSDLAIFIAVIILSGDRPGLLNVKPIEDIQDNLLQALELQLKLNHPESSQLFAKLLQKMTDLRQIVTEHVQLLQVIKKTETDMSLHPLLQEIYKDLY
Method: The assay was designed as in the reference, Biochem. Biophys. Res. Comm. 175:865-871, 1991, the disclosure of which is incorporated by reference for the teaching of the assay. Human PPARγ activity was evaluated by transactivation using a luciferase reporter gene. The pBL-TK-luciferase reporter plasmid AOX-3×PPRE-TK-LUC contains three copies of the rat acyl CoA oxidase PPRE cloned upstream of the minimal herpes simplex virus thymidine kinase (TK) promoter. Human full length PPARγ cDNA was cloned into pSG5 expression vector (Stratagene, Lo Jolla, Calif.).
HEK293 cells were seeded in 24 well plates and grown in DMEM supplemented with 10% (v/v) FCS. After 24 hours, they were transfected with 100 ng of hPPARγ receptor and 300 ng of AOX-3×PPRE-LUC reporter construct per well using Fugen 6 transfection reagent (Roche, Indianapolis, Ind.). […] The control was 0.1% DMSO. After 48 hours, transactivation activity was determined by luciferase assay using Steady Glow reagent (Promega, Madison, Wis.).

[3] = target: T2, Mouse PPARγ (Mus musculus, UniProt P37238); test: Mouse PPARγ assay (TransAM PPARγ ELISA, 3T3-L1 fibroblasts); assay type: cell-based; conditions: test compound 50 μM, 72 hrs
T2 construct: endogenous in cells; host or cells: 3T3-L1 fibroblasts
T2 sequence (P37238 1-505): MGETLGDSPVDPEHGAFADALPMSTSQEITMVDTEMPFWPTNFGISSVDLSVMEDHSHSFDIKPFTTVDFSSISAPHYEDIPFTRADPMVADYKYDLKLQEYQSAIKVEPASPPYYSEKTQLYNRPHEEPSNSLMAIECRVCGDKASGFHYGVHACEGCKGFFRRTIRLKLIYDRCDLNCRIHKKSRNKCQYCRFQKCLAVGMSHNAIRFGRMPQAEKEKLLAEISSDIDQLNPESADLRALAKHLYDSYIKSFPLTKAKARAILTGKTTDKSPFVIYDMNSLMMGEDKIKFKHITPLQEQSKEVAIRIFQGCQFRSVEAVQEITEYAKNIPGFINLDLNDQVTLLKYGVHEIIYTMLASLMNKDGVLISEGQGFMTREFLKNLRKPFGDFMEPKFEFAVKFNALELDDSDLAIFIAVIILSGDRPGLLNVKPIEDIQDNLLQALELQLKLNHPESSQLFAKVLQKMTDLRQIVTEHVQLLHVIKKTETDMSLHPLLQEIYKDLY
Method: The assay was designed as in the reference, Blood, 104(5), 1361-8, 2004, the disclosure of which is incorporated by reference for the teaching of the assay.
3T3-L1 fibroblasts were seeded in 6-well plates at a density of 4×10^4 cells/well and cultured in DMEM containing 10% calf serum. After 4-5 days, when the cells become confluent, each of test compound was added (from a 20 mM stock in DMSO) to the final concentration of 50 μM in DMEM supplemented with 10% FCS. […] The plates were incubated for 72 hrs at 37° C. in a CO2 incubator with fresh medium containing test substances added after first 48 hrs. After 72 hrs, the medium was removed; the cell layer was washed and processed for the PPARγ assay as per the instruction of the manufacturer (Active Motif, North America, California, USA). PPARγ activation was determined using 96-well ELISA assay as per the instruction manual (TransAM PPARγ. Active Motif, Cat 0.40196). Assay Readout was absorbance output from spectrophotometer for the mouse PPARγ assay. Luminescence data output was recorded for the human PPARγ assay.

[4] = test system: insulin resistant adipocytes (3T3 L1); test: In vitro model exhibiting insulin resistance (IR assay): 14C-2-deoxyglucose uptake; assay type: cell-based; conditions: glucose uptake; for fold induction at 10 µM: Mus musculus, dexamethasone-induced insulin resistant 3T3 L1 adipocytes, test compound 10 μM/mL, vehicle = 1.0, cut off 1.50 fold, read-out: Fold activity (fold activity over vehicle); for % of Rosiglitazone (comparison with Rosiglitazone): insulin resistant 3T3 L1 adipocytes, test compound 10 μM vs Rosiglitazone 0.1 μM
Method: The assay was designed as in the reference, British Journal of Pharmacology, 130, 351-58, 2000, the disclosure of which is incorporated by reference for the teaching of the assay. The solution of test compound (10 μM/mL) was prepared in DMSO. […] Differentiation into adipocytes was induced by the known methods as described below. (See, also, J. Biol. […] 3T3 L1 fibroblasts were seeded in 24- or 6-well plates at a density of 0.5−2×10^4 cells/well and were allowed to reach maximal confluency. The confluent fibroblasts were exposed to culture medium for 2 days. […] The mature adipocytes were exposed to dexamethasone, 100 nM added in ethanol, in culture medium and incubated for 2 days. […] The test compound was also present during this period. After 3-4 hours, the medium was aspirated and replaced with Kreb's Ringer phosphate (KRP) buffer at pH 7.4 and with human/porcine insulin, 200 nM. The cells were incubated for 30 minutes at 37° C. […] After exactly 5 minutes, the plates were transferred to ice trays and medium was rapidly aspirated. The cell layer was washed twice with ice-cold phosphate buffered saline, (PBS), pH 7.4. […] Non-specific glucose uptake was assayed in wells exposed to cytochalasin B, inhibitor of glucose transport. […] Statistical analysis was performed using unpaired t-test.

[5] = test system: genetically diabetic db/db BL/6J mice; test: Screening in db/db BL/6J mice: reduction of plasma glucose levels; assay type: in vivo; conditions: 10 days
Method: The protocol was designed as in references. • 1.
The screening of compounds was based on their ability to reduce the plasma glucose levels in genetically diabetic db/db BL/6J mice.
Male db/db mice (obtained from the Animal House of Nicholas Piramal Research Centre, Goregaon, Mumbai, India) were used for this study (body weight in the range of 30-40 g and age is 6-8 weeks) and were kept eight per cage in individually ventilated cages at controlled temperature (22±1° C.) and humidity (45±5%). Food and water were provided ad libitum during their laboratory stay, except for four hours fasting prior to blood sample collection. 12 hours light and dark cycle was followed during the whole study period.
After 4 hours fasting blood samples were collected from mice. Mice showing plasma glucose levels between 300 to 500 mg/dl were divided in groups (8-10 per group) such that the mean plasma glucose levels and variation within the group, for each group, is nearly same. After grouping, mice in respective groups received treatment with 0.5% CMC vehicle, standard compound or test compounds for 10 days.
After 4 hours fasting, mice were anaesthetized using isoflurane (inhalation anesthetic), and blood samples were collected through the retro orbital plexus. Collected blood samples were centrifuged at 7000 rpm for 10 minutes at 4° C.; Separated plasma was used for estimation of plasma glucose using diagnostic kits (Diasys, Germany). Plasma glucose levels of treated groups were normalized with control group using the following formula, which accounted for the changes in control group.
Formula used for normalization was *:{1−[…]}×100.

SMILES	lowering lipid levels compared with Rosiglitazone [1]	reduction in cholesterol levels ([1]; doses higher than 50 mpk) [%]	PPARγ activity (% of rosiglitazone) [2] [%]	PPARγ activity (% of rosiglitazone) [3] [%]	fold induction at 10 µM [4]	% of Rosiglitazone (comparison with Rosiglitazone) [4] [%]	Normalization with control (plasma glucose) ([5]; 150 mpk od)	melting point [°C]	Normalization with control (plasma glucose) ([5]; 100 mpk bid)	decrease in plasma triglyceride levels ([1]; Rosiglitazone 5 mpk) [%]	reduction in cholesterol levels ([1]; Rosiglitazone 5 mpk) [%]	Normalization with control (plasma glucose) ([5]; Rosiglitazone 5 mpk bid)	Normalization with control (plasma glucose) ([5]; Rosiglitazone 10 mpk od)
O=S(=O)(Nc1cnc(Oc2cc3ccccc3cn2)c(Cl)c1)c1ccc(Cl)cc1Cl [Example 1, 2,4-Dichloro-N-(5-chloro-6-(isoquinolin-3-yloxy)pyridin-3-yl)benzenesulfonamide]	as efficacious as Rosiglitazone	26	23	12.4	2.41 ± 0.06	78.75 ± 3.55	43.2 ± 15.7	203 to 205	–	–	–	–	–
COc1ccc(S(=O)(=O)Nc2cnc(Oc3cnc4ccccc4c3)c(Cl)c2)cc1 [Example 26, N-(5-Chloro-6-(quinolin-3-yloxy)pyridin-3-yl)-4-methoxybenzenesulfonamide]	–	–	19.3	–	2.19 ± 0.09	66.48 ± 5.26	–	–	41.90 ± 3.84	–	–	–	–
CN(CCOc1ccc(CC2SC(=O)NC2=O)cc1)c1ccccn1 (stereo not shown) [Rosiglitazone, reference compound]	–	–	–	–	–	–	–	–	–	40	27	54.52 ± 4.92 and 107.9 ± 15.1 and 83.6 ± 12.8	93.8 ± 22.7 and 55.0 ± 11.4
